Results published in US20230257700A1, “FUNCTIONAL HUMAN CORNEAL ENDOTHELIAL CELLS AND APPLICATION THEREOF” (KYOTO PREFECTURAL PUBLIC UNIVERSITY CORPORATION, priority 2020, published 2023).

Key:
[1] = system: miR184; test: intracellular miR184 expression by qRT-PCR; format: cell-based, human; conditions: with/without EGF, with/without Y27632
Text: (§1) Y27632 was used as a ROCK inhibitor.
(§2) Culture conditions conform to Examples 1 and 2.
(§3) The results of miR184, miR34, miR378, and miR146 gene expression variations in the presence or absence of EGF and in the presence or absence of Y by qRT-PCR are shown in FIGS. 17 and 18.

[2] = system: miR34a-5p; test: intracellular miR34a-5p expression by qRT-PCR; format: cell-based, human; conditions: with/without EGF, with/without Y27632
Text: as §1, §2, §3

[3] = system: cultured human corneal endothelial cells CT09; test: effects of additives, lot CT09 P5 (photographs, FACS, ELISA); format: cell-based; conditions: CT09 P5, conditions 1 to 5, Day 34 FACS, PDGF-bb and IL-8 1st to 5th week
Text: (§4) Lot CT09 P5 was used to assay the effects of additives to evaluate the product in a SB2-new culture method. First, using CT09 P4 (remaining cells for FBS lot assay), the culture supernatant was collected the day before the passage (Day 42), and then the CT09 P5 was passaged with ECD400 (181219), followed by culturing in Nancy medium (FBS #1652794, containing ascorbic acid) under conditions 1 to 5 shown in FIG. 23 (2 wells for each 6-well plate). From the 1st week to the 5th week, the culture supernatant was collected, one well was subjected to FACS measurement on Day 34 (190122), and the culture supernatant was measured for IL-8 and PDGF-bb by ELISA.

[4] = system: PDGF-bb; test: ELISA PDGF-bb in culture supernatant; format: cell-based, human; conditions: for PDGF-bb in culture supernatant (weekly): #190719 P1 and P2, #190318
Text: as §4
(§5) As to culture conditions, the Y addition timing is examined at P1 and P2 in #190719, and the Y addition timing is examined at P1 in #190802.
(§6) Using P4 of #190719, the culture supernatant was collected at 1 to 5 w to examine the difference in accordance with the presence or absence of the ROCK inhibitor. Donor information was as follows: #190719S/D, AEB-301, OSCN/ODCN, ECD=3448/3289, COD: Bleomycin Lung Toxicity 2/2 ChemoTreatments, D-P=11:28, D-C=8D.

[5] = system: human corneal endothelial cells (donor AEM-510); test: adhesion enhancement at P0 with or without Y addition; format: cell-based
Protocol: Next, ROCK inhibitors were tested for adhesion enhancement. In order to investigate whether the enhancement of adhesion by the ROCK inhibitor is related to standard cell manufacture, cells cultured under the following conditions were compared and verified at P0 with or without Y addition.
AEM-510 (person), ECD ODCN: 3058, and OSCN: 3058 were used, which were stored at 4° C. on January 30th, corneal treatment was performed on January 31st at 10:00, OD collagenase treatment was started at 10:45, and OS collagenase treatment was started at 11:05. Thereafter, seeding was started at 14:45 and cultured with Y−, A (ascorbic acid)+for OD and Y+, A+ for OS. At 10:00 on February 4, the medium was replaced, and both eyes: Y+, A+ were photographed (phase contrast ×4, ×10).

[6] = system: cultured human corneal endothelial cells; test: FACS cell surface CD antigens and phase-contrast morphology of cultured HCEC (standard cell ratio); format: cell-based
Protocol: Culture with 0+Y, SB2, EGF, Asc (ascorbic acid) ↓ P1 Culture with +Y, SB2, EGF, Asc ↓ P2 Culture in 4 ways with EGF(−), 0.5 ng/mL, 1 ng/mL, 5 ng/mL (+Y, SB2, Asc) ↓ Passage from each condition in P2 P3 Culture in 4 ways with EGF(−), 0.5 ng/mL, 1 ng/mL, 5 ng/mL (+Y, SB2, Asc) ↓ Passage from each condition in P3 P4 Culture in 4 ways with EGF(−), 0.5 ng/mL, 1 ng/mL, 5 ng/mL (+Y, SB2, Asc) *Trypsin (TrypLE, ThermoFisher) concentration ×10 at the time of detachment, seeding cell number ECD800 (In the above, P indicates the number of passages.)
P0 Culture two eyes collectively in 2 ways with EGF(−), 0.5 ng/mL (+Y, SB2, Asc) ↓ Passage from each condition in P0 P1 Culture in two ways with EGF(−), 0.5 ng/mL (+Y, SB2, Asc) ↓ Passage from each condition in P1 P2 Culture in two ways with EGF(−), 0.5 ng/mL (+Y, SB2, Asc) TrypLE concentration ×10 at the time of detachment, at seeding ECD800
as §5, §6
For FACS analysis, 16×10^4 cells (one type of antibody+negative control) were dispensed into Proteosave tubes and the rest were passaged. FACS required 8×10^4 cells per antibody type. Passages were seeded at an Endothelial Cell Density (ECD: cells/mm^2) of 400 (191001 time point) (24-well: 7.6×10^4 cells, 12-well: 15.2×10^4 cells, 6-well: 38×10^4 cells, T-25: 100×10^4 cells).
The FACS was started up, and an antibody solution (hereinafter light-shielded, on ice) was prepared as follows. antigen fluorescent dye Volume (μL)×sample type plus something extra (μL)
The cell suspension was centrifuged at 250×g (1,800 rpm) for 2 minutes at 4° C., the supernatant was removed using P-200, the concentration was adjusted to 4×10^6 cells/mL and suspended in FACS Buffer (+NaN3). When the suspension was less than 30 μL, it was suspended in 30 μL and 20 μL was used for the reaction and 10 μL for NC.
Twenty μL of the antibody solution and 20 μL of the suspension were mixed well by pipetting, and the tube was wrapped in aluminum to shield from light and rotated at 4° C. for 2 hours (up to 4 hours maximum) on a rotator. Centrifugation was performed at 250×g (1,800 rpm) for 2 minutes at 4° C., the supernatant was discarded, followed by washing with 100 μL of FACS Buffer (+NaN3). Centrifugation was performed at 250×g (1,800 rpm) for 2 minutes at 4° C., the supernatant was discarded, followed by suspending in 350 μL of FACS buffer (−NaN3), and transferring through a cell strainer to a 5-mL tube. NCs were suspended in FACS Buffer (−NaN3) to a total of 350 μL of the rest of the initial suspension, and transferred to a 5-mL tube through a cell strainer. During the FACS measurement, the sample was kept light-shielded and on ice, the FACS laser value and target cell range were determined, and a file was created (to follow: Open Book→Open Syringe→Green→Cytometer tab: Laser→Area scaling for HCEC label: FSC 0.5/Blue 0.75/Red 0.80). The NC was set to SIT and allowed to run briefly (Flow rate: set to medium, Acquire data 5 seconds→Remove sample from SIT and put on ice) to check the fluorescence parameter graph and target cell range. […]

[7] = system: IL-8; test: ELISA IL-8 in culture supernatant; format: cell-based, human
Text: as §4, §5, §6

[8] = system: IL-6, IL-8 and MIP-1b; test: cytokine measurement (BioPlex) in culture supernatant; format: cell-based, human; conditions: #190318
[9] = system: cultured endothelial cells; test: measurement of metabolites in culture supernatant (CE-TOFMS, CE-MS/MS); format: cell-based, human
Protocol: In this Example, differences between the metabolite properties of functional human corneal endothelial cells and the metabolite properties of non-intended cells were confirmed.
For measurement of metabolites in culture supernatant (CS), an 80 μL Milli-Q (Merck1 KGaA, Darmstadt, Germany) containing 20 μL of CS and internal standard solution 1 (H3304-1002; Human Metabolome Technologies, Inc., Yamagata, Japan), was thoroughly mixed. Cationic compounds were measured by CE time-of-flight mass spectrometry (CE-TOFMS) in positive mode, and anionic compounds were measured by CE tandem MS (CE-MS/MS) in positive and negative modes. Hierarchical cluster analysis (HCA) was performed using the proprietary software “PeakStat”. Differences in values were analyzed statistically using Student's t-test or one-way analysis of variance (ANOVA) with Bonferroni's post hoc test (GraphPadPrism 6.0, GraphPad software). A p-value of <0.05 was considered statistically significant.
The effect of adding a ROCK inhibitor was determined according to Example 3.

[10] = system: mitochondrial respiration (OXPHOS) of HCEC; test: mitochondrial respiratory capacity of cHCEC; format: cell-based, human; conditions: HCEC passages 2-5
Text: As used herein, “mitochondria dependent oxidative phosphorylation” is also called “mitochondria OXPHOS” and refers to a reaction of oxidative phosphorylation that depends on respiratory activity. As to the reaction associated with “mitochondria OXPHOS”, a extracellular flux analyzer, which analyzes the state of intracellular metabolism, can measure the oxygen consumption rate (OCR), which is an index of OXPHOS activity, the extracellular acidification rate (ECAR), which is an index of glycolytic activity.
Corneal endothelial cells (HCEC) were obtained from donor corneas provided by SightLife (Seattle, Wash., USA), and the HCEC were cultured according to a published protocol (Toda M, Ueno M, et al. Invest Ophthalmol Vis Sci. 2017; 58:2011) with some modifications. HCEC of passages 2-5 were used for all experiments. SPs containing CST were passaged at low cell density. The SPs of cHCEC were identified by cell surface markers (CD24, 44, 105, 166) using phase-contrast microscopy images and flow cytometry.

[11] = #190719 P1 and P2, ROCK inhibitor added 10 days after the start of culture
[12] = #190719 P4, ROCK inhibitor added at the start of the culture for 3 days

C[C@@H](N)[C@H]1CC[C@H](C(=O)Nc2ccncc2)CC1.Cl.Cl.O (relative stereo) [Y27632, (R)-(+)-trans-(4-pyridyl)-4-(1-aminoethyl)-cyclohexanecarboxamide dehydrochloride monohydrate]
miR184 expression level [1]: increases with the addition of the ROCK inhibitor
miR34a-5p expression level [2]: increases with the addition of the ROCK inhibitor
desirable additive condition (overall effects of the additives) [3]: addition of Y from Day 10
PDGF-bb in culture supernatant (weekly) [4]: high PDGF levels and slightly low levels in the P1 growth phase
PDGF-bb in culture supernatant (for each item) [4, 11]: increased from differentiation to maturation
PDGF-bb in culture supernatant [4, 12]: at a low level and does not satisfy the standard values
PDGF-bb in culture supernatant ([4]; #190802): increased dependently on differentiation and induction by a ROCK inhibitor
adhesion to the incubator after seeding ([5]; P0, Y+ vs Y−): promoted the adhesion to the incubator after seeding the cells
difference between cultures on the 14th day ([5]; Y27632 added for the first time after the 4th day vs from seeding): no difference was observed on the 14th day of culture
mature standard cells by FACS [6, 12]: no mature standard cells were detected by FACS
ratio of standard cells (FACS) ([6]; ROCK inhibitor added on the 10th day after the start of culture, #190719, #190802, #190318): higher ratio of standard cells in all of the three experiments
IL-8 in culture supernatant [7, 11]: lowest from differentiation to the maturation stage
IL-8 in culture supernatant [7, 12]: higher than the standard

NC(=O)c1ccc(-c2nc(-c3ccc4c(c3)OCO4)c(-c3ccccn3)[nH]2)cc1 [SB4]
desirable additive condition (overall effects of the additives) [3]: addition of SB4

C[S+]([O-])c1ccc(-c2nc(-c3ccncc3)c(-c3ccc(F)cc3)[nH]2)cc1 (stereo not drawn) [SB203580]
desirable additive condition (overall effects of the additives) [3]: no addition of SB2 or the addition thereof only at the final stage of culture
PDGF-bb in culture supernatant (for each item) ([4]; #190318, SB2 not added): high PDGF levels at 3 w
PDGF-bb in culture supernatant (weekly) [4]: little relation to the presence or absence of SB203580
IL-6, IL-8 and MIP-1b in culture supernatant (BioPlex) [8]: dependent on the p38 MAPK inhibitor
IL-8 in culture supernatant (weekly) ([7]; #190318): varies almost depending on the presence or absence of SB2
IL-8 in culture supernatant ([7]; #190802): decreased dependently on a p38 MAPK inhibitor

EGF: epidermal growth factor, a type of cell growth factor
miR184 expression level [1]: increases with no EGF addition than with EGF addition
miR34a-5p expression level [2]: increases with no EGF addition than with EGF addition
desirable additive condition (overall effects of the additives) [3]: no addition of EGF
Lactic Acid and L/P (lactic acid/pyruvic acid) ratio; anaerobic glycolytic activity [9]: non-intended cell profile with high anaerobic glycolytic activity due to the addition of EGF
metabolite profile of cultured endothelial cells ([9]; EGF added): showed a non-intended cell profile by adding EGF
amount of branched chain amino acids (Ile, Leu) produced ([9]; amount of EGF added varied): decreased when the amount of EGF added was reduced
ratio of corneal endothelial cells of the present disclosure (FACS) ([6]; EGF (−) or 0.5 ng/mL from primary culture, P0 to P2, donor #214): increases when EGF is not added
cell shape under microscopy and cell surface CD antigen trait ([6]; EGF (−), 0.5, 1, 5 ng/mL, passages P2 to P4, donor #202): no addition of EGF was desirable at any passage from P2 to P4
standard cell ratio ([6]; EGF addition, HCEC passages 2-5): lowers the standard cell ratio
mitochondrial respiratory capacity and oxidative phosphorylation (OXPHOS) [10]: reduces mitochondrial respiratory capacity and oxidative phosphorylation (OXPHOS)
